Results on eleven compounds are retold here after patent US12478617B2, “Lipidated peptide inhibitors of interleukin-23 receptor” (JANSSEN BIOTECH, INC., priority 2021, dated 2025).

For this data set the following is noted: disulfide bond, 20-membered ring, I2/AcOH, ACN/H2O.

Like-named read-outs stand apart in the source and are kept apart here.

With `CC(=O)NCCCC[C@@H]1NC(=O)[C@H](Cc2c[nH]c3c(C)cccc23)NC(=O)[C@H]([C@@H](C)O)NC(=O)[C@H](CC(N)=O)NC(=O)[C@@H](NC(=O)[C@@H](CCCCNC(=O)COCCOCCNC(=O)COCCOCCNC(=O)C[N+](C)(C)CCNC(=O)CC[C@H](NC(=O)CCCCCCCCCCCCCCCCC(=O)O)C(=O)O)NC(C)=O)C(C)(C)SSC(C)(C)[C@@H](C(=O)N[C@@H](Cc2ccc(OCCN)cc2)C(=O)N[C@@H](Cc2ccc3ccccc3c2)C(=O)NC2(C(=O)N[C@@H](CCCCNC(C)=O)C(=O)N[C@@H](CC(N)=O)C(=O)N[C@@H](Cc3cccnc3)C(=O)N(C)CC(N)=O)CCOCC2)NC1=O`, the ring closure, yield after HPLC (from Ac-dLys(PEG2PEG2SP6gEC18OH)-Pen-Asn-Thr-7MeTrp-Lys(Ac)-Pen-AEF-2Nal-THP-Lys(Ac)-Asn-3Pya-Sar-NH2, 0.343 mM) stood at 35%.

Take `CCCCCCCCCCCCCCCC(=O)N[C@@H](CCC(=O)NCCCC[C@H](NC(=O)C1(NC(=O)[C@H](Cc2ccc3ccccc3c2)NC(=O)[C@H](Cc2ccc(OCCN)cc2)NC(=O)[C@H]2NC(=O)[C@H](CCCCNC(C)=O)NC(=O)[C@H](Cc3c[nH]c4c(C)cccc34)NC(=O)[C@H]([C@@H](C)O)NC(=O)[C@H](CC(N)=O)NC(=O)[C@@H](NC(=O)[C@@H](CCCCNC(=O)COCCOCCNC(=O)COCCOCCNC(=O)CC[C@H](NC(=O)CCCCCCCCCCCCCCC(=O)O)C(=O)O)NC(C)=O)C(C)(C)SSC2(C)C)CCOCC1)C(=O)N[C@@H](CC(N)=O)C(=O)N[C@@H](Cc1cccnc1)C(=O)N(C)CC(N)=O)C(=O)O`: for the setting “from Ac-dLys(PEG2PEG2gEC16OH)-Pen-Asn-Thr-7MeTrp-Lys(Ac)-Pen-AEF-2Nal-THP-Lys(gEC16)-Asn-3Pya-Sar-NH2, 1.62 mM”, the ring closure, yield after HPLC turned out to be 13%.

`CC(=O)NCCCC[C@@H]1NC(=O)[C@H](Cc2c[nH]c3c(C)cccc23)NC(=O)[C@H]([C@@H](C)O)NC(=O)[C@H](CC(N)=O)NC(=O)[C@@H](NC(=O)[C@@H](CCCCNC(=O)COCCOCCNC(=O)COCCOCCNC(=O)CC[C@H](NC(=O)CCCCCCCCCOc2cccc(C(=O)O)c2)C(=O)O)NC(C)=O)C(C)(C)SSC(C)(C)[C@@H](C(=O)N[C@@H](Cc2ccc(OCCN)cc2)C(=O)N[C@@H](Cc2ccc3ccccc3c2)C(=O)NC2(C(=O)N[C@@H](CCCCNC(=O)COCCOCCNC(=O)COCCOCCNC(=O)CC[C@H](NC(=O)CCCCCCCCCOc3cccc(C(=O)O)c3)C(=O)O)C(=O)N[C@@H](CC(N)=O)C(=O)N[C@@H](Cc3cccnc3)C(=O)N(C)CC(N)=O)CCOCC2)NC1=O` gave a ring closure, yield after HPLC (from Ac-dLys(PEG2PEG2gEmXOH)-Pen-Asn-Thr-7MeTrp-Lys(Ac)-Pen-AEF-2Nal-THP-Lys(PEG2PEG2gEmXOH)-Asn-3Pya-Sar-NH2, […]) of 13%.

In the case of `CC(=O)NCCCC[C@@H]1NC(=O)[C@H](Cc2c[nH]c3c(C)cccc23)NC(=O)[C@H]([C@@H](C)O)NC(=O)[C@H](CC(N)=O)NC(=O)[C@@H](NC(=O)[C@@H](CCCCNC(=O)COCCOCCNC(=O)COCCOCCNC(=O)CC[C@H](NC(=O)CCCCCCCCCCCCCCCCC(=O)O)C(=O)O)NC(C)=O)C(C)(C)SSC(C)(C)[C@@H](C(=O)N[C@@H](Cc2ccc(OCCN)cc2)C(=O)N[C@@H](Cc2ccc3ccccc3c2)C(=O)NC2(C(=O)N[C@@H](CCCCNC(C)=O)C(=O)N[C@@H](CC(N)=O)C(=O)N[C@@H](Cc3cccnc3)C(=O)N(C)CC(N)=O)CCOCC2)NC1=O`, the ring closure, yield after HPLC (from Ac-dLys(PEG2PEG2gEC18OH)-Pen-Asn-Thr-7MeTrp-Lys(Ac)-Pen-AEF-2Nal-THP-Lys(Ac)-Asn-3Pya-Sar-NH2, […]) is 28%.

Take `CC(=O)NCCCC[C@@H]1NC(=O)[C@H](Cc2c[nH]c3c(C)cccc23)NC(=O)[C@H]([C@@H](C)O)NC(=O)[C@H](CC(N)=O)NC(=O)[C@@H](NC(C)=O)C(C)(C)SSC(C)(C)[C@@H](C(=O)N[C@@H](Cc2ccc(OCCN)cc2)C(=O)N[C@@H](Cc2ccc3ccccc3c2)C(=O)NC2(C(=O)N[C@@H](CCCCNC(=O)COCCOCCNC(=O)COCCOCCNC(=O)CC[C@H](NC(=O)CCCCCCCCCCCCCCCCC(=O)O)C(=O)O)C(=O)N[C@@H](CC(N)=O)C(=O)N[C@@H](Cc3cccnc3)C(=O)N(C)CC(N)=O)CCOCC2)NC1=O`: under “from Ac-Pen-Asn-Thr-7MeTrp-Lys(Ac)-Pen-AEF-2Nal-THP-Lys(PEG2PEG2gEC18OH)-Asn-3Pya-Sar-NH2, 0.382 mM”, the ring closure, yield after HPLC was determined as 24%.

As to `CC(=O)NCCCC[C@@H]1NC(=O)[C@H](Cc2c[nH]c3c(C)cccc23)NC(=O)[C@H]([C@@H](C)O)NC(=O)[C@H](CC(N)=O)NC(=O)[C@@H](NC(=O)[C@@H](CCCNC(=N)N)NC(C)=O)C(C)(C)SSC(C)(C)[C@@H](C(=O)N[C@@H](Cc2ccc(OCCN)cc2)C(=O)N[C@@H](Cc2ccc3ccccc3c2)C(=O)NC2(C(=O)N[C@@H](CCC(=O)O)C(=O)N[C@@H](CC(N)=O)C(=O)N[C@@H](Cc3cccnc3)C(=O)N(C)[C@@H](CCCCNC(=O)COCCOCCNC(=O)COCCOCCNC(=O)CC[C@H](NC(=O)CCCCCCCCCCCCCCCCC(=O)O)C(=O)O)C(N)=O)CCOCC2)NC1=O`, where the note is “from Ac-dArg-Pen-Asn-Thr-7MeTrp-Lys(Ac)-Pen-AEF-2Nal-THP-Glu-Asn-3Pya-MeLys(PEG2PEG2gEC18OH)-NH2, […]”, the ring closure, yield after HPLC is 11%.

For the setting “from Ac-dLys(PEG2PEG2gEC18OH)-Pen-Asn-Thr-7MeTrp-Lys(Ac)-Pen-AEF-2Nal-THP-Lys(Ac)-Asn-3Pya-N(4AmBenzyl)Gly-NH2, 1.72 mM”, `CC(=O)NCCCC[C@@H]1NC(=O)[C@H](Cc2c[nH]c3c(C)cccc23)NC(=O)[C@H]([C@@H](C)O)NC(=O)[C@H](CC(N)=O)NC(=O)[C@@H](NC(=O)[C@@H](CCCCNC(=O)COCCOCCNC(=O)COCCOCCNC(=O)CC[C@H](NC(=O)CCCCCCCCCCCCCCCCC(=O)O)C(=O)O)NC(C)=O)C(C)(C)SSC(C)(C)[C@@H](C(=O)N[C@@H](Cc2ccc(OCCN)cc2)C(=O)N[C@@H](Cc2ccc3ccccc3c2)C(=O)NC2(C(=O)N[C@@H](CCCCNC(C)=O)C(=O)N[C@@H](CC(N)=O)C(=O)N[C@@H](Cc3cccnc3)C(=O)N(CC(N)=O)Cc3ccc(C(N)=O)cc3)CCOCC2)NC1=O` showed a ring closure, yield after HPLC of 26.8%.

For the compound “MeCO-k(PEG2PEG2gE(c)C180H)-Pen*-N-T-7MeW-K(Ac)-Pen*-AEF-2Nal-THP—K(Ac)-N-3Pya-Sar-CONH2”, the ring closure, yield after HPLC (ascorbic acid quench, 0.34 mM) is 20%.

The compound `CC(=O)NCCCC[C@@H]1NC(=O)[C@H](Cc2c[nH]c3c(C)cccc23)NC(=O)[C@H]([C@@H](C)O)NC(=O)[C@H](CC(N)=O)NC(=O)[C@@H](NC(=O)[C@@H](CCCNC(=N)N)NC(C)=O)C(C)(C)SSC(C)(C)[C@@H](C(=O)N[C@@H](Cc2ccc(OCCNC(=O)COCCOCCNC(=O)COCCOCCNC(=O)CC[C@H](NC(=O)CCCCCCCCCCCCCCCCC(=O)O)C(=O)O)cc2)C(=O)N[C@@H](Cc2ccc3ccccc3c2)C(=O)NC2(C(=O)N[C@@H](CCCCNC(C)=O)C(=O)N[C@@H](CC(N)=O)C(=O)N[C@@H](Cc3cccnc3)C(=O)N(C)CC(N)=O)CCOCC2)NC1=O` came in with a ring closure, yield after HPLC (from Ac-dArg-Pen-Asn-Thr-7MeTrp-Lys(Ac)-Pen-AEF(PEG2PEG2gEC18OH)-2Nal-THP-Lys(Ac)-Asn-3Pya-Sar-NH2, 0.355 mM) of 10%.

`CC(=O)NCCCC[C@@H]1NC(=O)[C@H](Cc2c[nH]c3c(C)cccc23)NC(=O)[C@H]([C@@H](C)O)NC(=O)[C@H](CC(N)=O)NC(=O)[C@@H](NC(=O)[C@@H](CCCNC(=N)N)NC(C)=O)C(C)(C)SSC(C)(C)[C@@H](C(=O)N[C@@H](Cc2ccc(OCCN)cc2)C(=O)N[C@@H](Cc2ccc3ccccc3c2)C(=O)NC2(C(=O)N[C@@H](CCC(=O)O)C(=O)N[C@@H](CC(N)=O)C(=O)N[C@@H](Cc3cccnc3)C(=O)N(C)CC(=O)N[C@@H](CCCCNC(=O)COCCOCCNC(=O)COCCOCCNC(=O)CC[C@H](NC(=O)CCCCCCCCCCCCCCCCC(=O)O)C(=O)O)C(N)=O)CCOCC2)NC1=O` yielded a ring closure, yield after HPLC (from Ac-dArg-Pen-Asn-Thr-Trp(7-Me)-Lys(Ac)-Pen-AEF-2Nal-THP-Glu-Asn-3Pya-Sar-Lys(PEG2PEG2gEC18OH)-NH2, 0.345 mM) of 5%.

The compound `CC(=O)NCCCC[C@@H]1NC(=O)[C@H](Cc2c[nH]c3c(C)cccc23)NC(=O)[C@H]([C@@H](C)O)NC(=O)[C@H](CC(N)=O)NC(=O)[C@@H](NC(=O)[C@@H](CCCNC(=N)N)NC(=O)COCCOCCNC(=O)COCCOCCNC(=O)CC[C@H](NC(=O)CCCCCCCCCCCCCCCCC(=O)O)C(=O)O)C(C)(C)SSC(C)(C)[C@@H](C(=O)N[C@@H](Cc2ccc(OCCN)cc2)C(=O)N[C@@H](Cc2ccc3ccccc3c2)C(=O)NC2(C(=O)N[C@@H](CCCCNC(C)=O)C(=O)N[C@@H](CC(N)=O)C(=O)N[C@@H](Cc3cccnc3)C(=O)N(C)CC(N)=O)CCOCC2)NC1=O` showed a ring closure, yield after HPLC (from HOC18gEPEG2PEG2-dArg-Pen-Asn-Thr-7MeTrp-Lys(Ac)-Pen-AEF-2Nal-THP-Lys(Ac)-Asn-3Pya-Sar-NH2, 0.361 mM) of 22%.
